# US20080064027A1, “TEL/Etv6-mediated inhibition of cell proliferation” (priority 2002, published 2008)
# Read-outs that look alike come from different tables or passages of the source.
# Experiments:
# [1] = test system: Stat3 transcriptional activity; test: APRE-driven luciferase reporter assay; format: cell-based; conditions: for Relative Luciferase Activity: 24 hours, control = 1; for Stat3-dependent transcription of luciferase, increase over control: Stat3-ER-expressing A375, without TEL siRNA
# Description: Luciferase assays are used to verify that the Stat3-ER construct is transcriptionally active. For this purpose, a luciferase reporter gene driven by the acute-phase response element (APRE) of the alpha 2-macroglobulin gene, a target for Stat1 and Stat3, was used.
# Cells (2×10^6 cells/6 well dish) were transfected with a reporter plasmid containing four copies of acute phase responsible element (APRE) upstream of the minimal junB promoter linked to the luciferase gene (T Hirano, EMBO Journal, 1996, 15, 3651-3658), together with the internal control plasmid pRL-SV40 from Promega (Madison, Wis.). Twenty-four hours after the transfection, cells were either left unstimulated or stimulated with OSM (PeproTechEC, London, United Kingdom), 4-hydroxytamoxifen (4HT; Sigma, St. Louis, Mo.) or a combination of 4HT/OSM for 24 hours. The preparation of cell extracts and measurement of luciferase activities were carried out using the Dual-Luciferase reporter assay system from Promega (Madison, Wis.) in an Autolumat LB 953 (Berthold Technologies, Wildbad, Germany). Changes in firefly luciferase activity were expressed relative to Renilla luciferase activity in the same sample.
# C/EBPdelta mRNA = test: C/EBPdelta expression (quantitative PCR); format: cell-based; conditions: quantitative PCR
# Procedure: A LacZ siRNA was used as control. The designed RNA oligonucleotides were ‘blasted’ against the GENBANK/EMBL databank to ensure gene specificity. The RNA oligonucleotides were obtained commercially. Transfection with expression vectors was carried out 1 day after the siRNA transfection using Effectene.
# TEL [2] = test: TEL protein level by Western blotting; format: cell-based; conditions: for TEL isoforms (TEL and TEL43) expression: ASER cells
# Procedure: Protein analysis was carried out by Western blotting. In brief, cells were harvested in NP40 extraction buffer (50 mM Tris (pH 7.5), 1 mM EGTA, 5 mM EDTA, 120 mM NaCl, 1% NP40, 2 mM sodium orthovanadate, 50 mM sodium fluoride, 20 mM ? -glycerophosphate, 10 μg/ml leupeptin, 10 μg/ml aprotinin, and 0.5 mM phenylmethylsulfonyl fluoride) for 5 min on ice. The lysates were clarified by centrifugation and protein concentrations were determined using the Bio-Rad protein assay reagent (Bio-Rad Laboratories Gmbh, Munich, Germany). For immunoprecipitaton, equal amounts of proteins were incubated with Stat3 (C-20) from Santa Cruz Biotechnology (Santa Cruz, Calif.) for 1 hr. Following SDS-polyacrylamide gel eletrophoresis (SDS-PAGE), proteins were blotted onto polyvinylidene difluoride membranes (Boehringer Mannheim, Mannheim, Germany). After blocking with 10% horse serum (Life Technologies, Inc.) in 50 mM Tris pH 7.5, 150 mM NaCl, 0.05% Tween 20, filters were probed with specific antibodies; c-TEL, Stat3 (C-20) from Santa Cruz Biotechnology (Santa Cruz, Calif.), phospho-Stat3 (Tyr 705) from Cell Signaling Technology (Beverly, Mass.). Proteins were visualized with peroxidase-coupled secondary antibodies using the enhanced chemiluminescence detection system (Amersham Pharmacia Biotech, Little Chalfont, United Kingdom).
# A375-Stat3-ER cells = conditions: for effect on cell cycle profile: A375-Stat3-ER cells
# Procedure: In brief, cells were harvested at the indicated times (24, 48 and 72 h) washed three times with ice-cold PBS and resuspended in propidium iodide buffer (1 mM sodium citrate (pH 4.0), 1.5 mM NaCl, 5 mM EDTA, 5 mM EGTA, 0.1% NP40, 4 mg/ml propidium iodide and 80 mg/ml of RNase A). After 30 min incubation in the dark on ice, cell cycle distribution was measured with a Becton Dickinson FACS can flow cytometer.
# parent A375 cells = test: Proliferation of parent A375 cells; conditions: 4HT 1 microM
# TEL [3] = test: TEL expression in human cancer cell lines; format: cell-based
# Description: TEL is usually expressed as two protein isoforms corresponding to initiation of TEL mRNA translation at ATG codon 1 and 43 (TEL and TEL43). […] To ascertain if TEL is a natural target of Stat3, we examined its expression in human cancer cell lines in response to OSM or IL-6. […] However, TEL expression was unchanged in other cell lines, including the prostate cancer cells PC3 and LNCaP and MDA-MB-468 breast cancer cells, even though it was expected that Stat3 is activated in each of these cell lines by IL-6/OSM treatment.
# Stat3 = test: TEL-Stat3 interaction, immunoprecipitation from nuclear extracts; format: binding
# Procedure: Since the TEL DNA-binding domain is not required for repression of Stat3 activity, this Example tests the possibility that TEL interacts directly with Stat3. Extracts from nuclear-enriched fractions were prepared from control or OSM-stimulated A375 cells. […] Endogenous TEL was present in Stat3 immunoprecipitates and the levels of TEL associating with Stat3 increased in OSM-treated compared to control-treated nuclear extracts. Conversely, Stat3 is present in a TEL-containing complex, pulled down through an immobilized GGM-containing oligonucleotide, which is a binding site for TEL.
# [4] = 4HT 1 microM, Stat3-ER expressing A375 cells
# [5] = nuclear lysates of OSM-stimulated A375 cells
compound,measurement,setting,value
"CCC(=C(c1ccc(O)cc1)c1ccc(OCCN(C)C)cc1)c1ccccc1 [4HT, 4-hydroxytamoxifen, reference compound]",Relative Luciferase Activity,[1]; [4],29
same,stimulation of transcription from the APRE,[1]; [4],more efficiently than 100 ng/ml OSM
same,"Stat3-dependent transcription of luciferase, increase over control",[1],about 6 fold
same,C/EBPdelta mRNA,C/EBPdelta mRNA,significantly increased
same,TEL protein level upon treatment,TEL [2]; Stat3-ER-expressing A375 cells,strongly increased
same,TEL isoforms (TEL and TEL43) expression,TEL [2]; after 24 hrs of treatment,strongly increased
same,TEL isoforms (TEL and TEL43) expression,TEL [2]; within 8 hrs of 4HT addition,significantly increased
same,Apoptotic cells,A375-Stat3-ER cells; 24 h,<1%
same,G1 (change in percentage of cells),A375-Stat3-ER cells; 24 h,+1%
same,G2/M (change in percentage of cells),A375-Stat3-ER cells; 24 h,+2%
same,S (change in percentage of cells),A375-Stat3-ER cells; 24 h,−3%
same,Apoptotic cells,A375-Stat3-ER cells; 48 h,<1%
same,G2/M (change in percentage of cells),A375-Stat3-ER cells; 48 h,−6%
same,S (change in percentage of cells),A375-Stat3-ER cells; 48 h,+1%
same,G1 (change in percentage of cells),A375-Stat3-ER cells; 72 h,−1%
same,G2/M (change in percentage of cells),A375-Stat3-ER cells; 72 h,+1%
same,S (change in percentage of cells),A375-Stat3-ER cells; 72 h,0%
same,Apoptotic cells,A375-Stat3-ER cells; 72 h (3 days),<1%
same,effect on cell cycle profile,A375-Stat3-ER cells,only marginally affected
same,entry into S phase after release of cells synchronized in G1,A375-Stat3-ER cells; A375 Stat3-ER cells,delayed relative to control cells
same,proliferation of the parent A375 cells,parent A375 cells,does not affect proliferation
oncostatin M [OSM],"activation of Stat3 transcriptional activity among IL-6 family members tested (IL-6, LIF)",[1]; A375 cells,most potent activator
same,Relative Luciferase Activity,"[1]; OSM 1 ng/ml, Stat3-ER expressing A375 cells",3
same,Relative Luciferase Activity,"[1]; OSM 10 ng/ml, Stat3-ER expressing A375 cells",9
same,Relative Luciferase Activity,"[1]; OSM 100 ng/ml, Stat3-ER expressing A375 cells",18
same,"Stat3-dependent transcription of luciferase, increase over control",[1],about 9 fold
same,TEL expression,"TEL [3]; PC3, LNCaP prostate cancer cells and MDA-MB-468 breast cancer cells",unchanged
same,TEL expression,"TEL [3]; T47D and SKBr-3 breast cancer cells, DU145 prostate carcinoma cells, HepG2 hepatoma-derived cells",significantly increased
same,levels of TEL associating with Stat3 in Stat3 immunoprecipitates,Stat3; OSM-treated compared to control-treated nuclear extracts,increased
same,nuclear Stat3 levels,Stat3; [5],expected increase in Stat3 levels
same,nuclear content of TEL,Stat3; [5],not affected
same,effect on cell cycle profile,A375-Stat3-ER cells,little effect
